Columns and labels:
insulin resistance = details: cited from earlier work
[1] = humans, after mushroom consumption (0 g, 8 g, 16 g doses); cited from earlier work
glutathione = assay: Glutathione levels in plasma, cortex and midbrain of Parkinson's model mice, by glutathione assay; assay type: in vivo, mouse; details: compared with knockout mice
Experimental: Matched cohorts of SNCA transgenic mouse model of PD were used to measure the therapeutic efficacy of ErgoD2™ to control movement disorder, improve grip strength, and lower alpha-synuclein in the cortex and/or midbrain of the PD animals. Additionally, alpha-synuclein was measured in the plasma, and glutathione was measured in the plasma, cortex and midbrain. IL-6 measurements and an immunohistochemistry study will also be performed on intestinal tissues to see if there are pathologic variances in intestinal function between cohorts, which could be associated with disease onset and progression.
Concentrations of glutathione present in midbrain homogenates (nM), as measured by glutathione assay.
Concentrations of glutathione present in cortex homogenates (nM), as measured by glutathione assay. Error bars represent±standard error. Glutathione is a major protective antioxidant in animal cells. It is present most abundantly in its reduced form (GSH) in healthy cells. The levels of GSH and glutathione disulfide (GSSG), the oxidized form, are used as indicators of oxidative stress and overall cell health. One of the well-established markers of PD is a decrease in glutathione levels in the substantia nigra (SN). This decrease is specific to the SN and is not observed in other sections of the PD brain.

Molecule: vitamin D
- improvement of insulin resistance (insulin resistance; bringing 25(OH)D levels above 80 nmol/L): 12%
- improvement in insulin sensitivity (insulin resistance; increasing vitamin D levels from 25 to 75 nmol/L): 60%

Molecule: C[N+](C)(C)[C@@H](Cc1c[nH]c(=S)[nH]1)C(=O)[O-] [L-Ergothioneine]
- time of peak of ET in red blood cells (RBC) [1]: 2 h

Molecule: CC(=O)N[C@@H](CS)C(=O)O [NAC, n-acetyl cysteine]
- cortex glutathione concentration, treated transgenic versus knockout mice (glutathione): no significant differences
